Experimental data reported in patent US20100029778A1, “HAIR AND/OR SCALP TREATMENT COMPOSITIONS” (Unilever Home & Personal Care USA, Division of Conopco, Inc., priority 2001, published 2010).
Where “and” joins values, the source holds several entries; their conditions need not be identical. Equal values may be shown once.

Tests used:
histamine-induced itch [1] = assay: Histamine-induced itch, test material topically applied in ethanol:Vaseline Intensive Care Lotion 1:1; format: in vivo, human; conditions: for Itch score % of control: 50 mM in ethanol mixed 1:1 with VICL, control = ethanol:VICL vehicle alone of the same run; for Effect on histamine-induced itch (in words): topically applied in the presence of a lotion
histamine-induced itch [2] = assay: Histamine-induced itch, topically applied Aqueous Cream BP, histamine iontophoresis, VAS; conditions: for Itch score (area under the curve): volar forearm skin, after 4 hours, VAS area under curve 0 to 5 minutes; for Itch score % of control: control = vehicle alone
histamine-induced itch [3] = assay: Histamine-induced itch, test material applied under water-impermeable patch for 24 hours before histamine challenge; conditions: applied by patch
[4] = HU-210 0.05% (w/v) in Aqueous Cream BP
[5] = HU-210 0.5% (w/v) in Aqueous Cream BP

CCCCCCCCCCCCCCCCCC(=O)NCCO [SEA] was tested, and the “Itch score % of control” value (histamine-induced itch [1]) was 231% and 260% and 190% and the “Effect on histamine-induced itch (in words)” value (from here on “Effect”) (histamine-induced itch [1]) was “unable to demonstrate any anti-pruritic action or even appeared to exacerbate the itch response”.
For CCCCCCC(C)(C)c1cc(O)c2c(c1)OC(C)(C)[C@@H]1CC=C(CO)C[C@@H]21 [HU-210, (6aR)-trans-3-(1,1-Dimethylheptyl)-6a,7,10,10a-tetrahydro-1-hydroxy-6,6-dimethyl-6H-dibenzo[b,d]pyran-9-methanol], the “Itch score (area under the curve)” value (histamine-induced itch [2]; [4]) was 101, the “Itch score % of control” value (histamine-induced itch [2]; [4]) was 7.3% and the “Itch score (area under the curve)” value (histamine-induced itch [2]; [5]) was 119. The “Itch score % of control” value (histamine-induced itch [2]; [5]) was 6.2% and the “Effect” value (histamine-induced itch [2]; topically applied in cream) was “capable of reducing histamine-induced itch”.
CCCCCCCCCCCCCCCC(=O)NCCO [PEA, Palmitoylethanolamide] was tested, and the “Effect” value (histamine-induced itch [3]) was “can inhibit histamine-induced itch” and the “Effect” value (histamine-induced itch [1]) was “can inhibit histamine-induced itch”.
In the case of CCCCC/C=C\C/C=C\CCCCCCCC(=O)NCCO [LAMEA, linoleoylethanolamine], the “Itch score % of control” value (histamine-induced itch [1]) is reported as 169% and 108% and 100% and the “Effect” value (histamine-induced itch [1]) is reported as “unable to demonstrate any anti-pruritic action or even appeared to exacerbate the itch response”.
